Common to all, as to assay: NCI-60 cell line screen, 48 h
The test system of experiment [1] is MOLT-4 leukemia.
Experiment [2] deals with K-562 leukemia.
For experiment [3], the system named is SK-MEL-28 melanoma.
The test system of experiment [4] is LOX IMVI melanoma.
In experiment [5] the test system is UO-31 renal.
Experiment [6] relates to SNB-19 CNS.
In experiment [7] the test system is COLO 205 colon.
The test system of experiment [8] is OVCAR-4 ovarian.
Experiment [9] concerns OVCAR-5 ovarian.
The subject of experiment [10] is SW-620 colon.

In PubChem BioAssay (NCI) one finds TGI and GI50 data, which are given here for 9 compounds.

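Assay format: 96-well plates, 48-hour exposure. GI50: concentration for 50% inhibition of growth. Definition used: TGI = concentration required for complete inhibition of growth.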 Some results are limits rather than exact numbers.

With `c1coc(CNc2ncnc3[nH]ncc23)c1`, the TGI in [1], in experiment [2], in experiment [3], in [4], in experiment [5] and in experiment [6] was over 100 µM in each case. For the same compound, the TGI in experiment [7], in [8], in experiment [9] and in experiment [10] was over 100 µM in each case.

In the case of `Cc1cc(C)n(-c2nsc3ccccc23)n1`, the TGI in experiment [1], in experiment [2], in experiment [3], in [4], in experiment [5] and in experiment [6] was over 100 µM each time. For the same compound, the TGI in experiment [7], in experiment [8], in experiment [9] and in experiment [10] was over 100 µM throughout.

As to `Cc1ccc2c(c1)C(=O)N(N(C)C)CC(=O)N2`, the TGI in experiment [1], in [2], in experiment [3], in experiment [4], in experiment [5] and in experiment [6] was over 100 µM each time. The TGI in experiment [7], in experiment [8], in [9] and in experiment [10] was over 100 µM each time.

As to `CC(=O)c1ccc2c(c1)c1c(C)c3c[n+](C)ccc3c(C)c1n2C`, the TGI in experiment [1] is 20.8 µM; in [2], over 72.2 µM; in experiment [3], 32.3 µM; in experiment [4], 49.4 µM; in experiment [5], over 23.7 µM; in experiment [6], 5.74 µM. Moreover, the TGI in [7] is over 100 µM; in experiment [8], 54.4 µM; in experiment [9], over 100 µM; in experiment [10], over 85.4 µM.

As to `CSc1nc(NC2OCC(O)C(O)C2O)c(N)c(=O)[nH]1` (centres undefined), the TGI in experiment [1], in [2], in experiment [3], in experiment [4], in [5] and in experiment [6] was over 100 µM throughout. Besides, the TGI in experiment [7], in experiment [8], in experiment [9] and in [10] was over 100 µM each time.

As to `Fc1ccc(C2CC(c3cccc(Nc4ccncc4)c3)=NN2c2ccc(Cl)cc2)cc1` (centres undefined), the GI50 in experiment [1] is 2.12 µM; in experiment [2] it was 1.86 µM; in experiment [3] it was 1.72 µM; in [4], 1.69 µM; in experiment [5], 1.42 µM; in experiment [6], 1.65 µM. Further, the GI50 in [8] was 1.64 µM; in experiment [9], 1.81 µM; in experiment [10], 1.64 µM. Besides, the TGI came out at 5.33 µM in experiment [1]; 4.86 µM in experiment [2]; 3.24 µM in [3]; 3.06 µM in experiment [4]; 2.76 µM in experiment [5]; 3.07 µM in experiment [6]. Moreover, the TGI in experiment [8] turned out to be 3.05 µM; in experiment [9], 4.05 µM; in [10], 3.09 µM.

`N#CN=[N+]([O-])c1ccc(C(=O)O)cc1`: the TGI in experiment [2] came out at 38.4 µM; in experiment [3], 33.4 µM; in experiment [5], 30.3 µM; in [6], 29.8 µM; in [8], 35.8 µM; in experiment [9] it was 34.7 µM. Besides, the TGI in [10] was 36.6 µM.

Turning to `Brc1ccc(C2CC(c3cccc4ccccc34)=Nc3ccccc3S2)cc1` (centres undefined), the TGI in experiment [1], in [2], in experiment [3], in experiment [4], in experiment [5] and in experiment [6] was over 100 µM throughout. Further, the TGI is over 100 µM in [7], over 100 µM in [8], over 100 µM in experiment [9] and 34 µM in experiment [10].

Regarding `Cc1cc2c(cc1C)OC(=O)CC2`, the TGI in experiment [1], in experiment [2], in experiment [3], in [4], in [5] and in [7] was over 100 µM each time. Further, the TGI in experiment [8], in experiment [9] and in [10] was over 100 µM each time.
